{"source": "paper PMC2410218", "about": "“Identification of an HLA-A^*0201-restricted T-cell epitope derived from the prostate cancer-associated protein prostein” (British Journal of Cancer, 2004)", "key": {"[1]": {"tested_on": "T2 cells pulsed with the individual peptides", "assay": "51Cr release assay: in vitro-stimulated CD8+ T cells against peptide-pulsed T2 cells", "format": "cell-based, human", "conditions": "CD8+ T cells stimulated four times with peptide-pulsed autologous DCs (20 μg ml^-1 of each peptide); T2 cells pulsed at 50 μg ml^-1; E:T 20:1; 4 h 51Cr release; triplicates", "method": "Briefly, peripheral blood mononuclear cells were prepared from blood samples by Ficoll–Hypaque (Biochrom) density centrifugation. Monocytes were isolated by immunomagnetic cell separation with an anti-CD14 antibody coupled to paramagnetic microbeads (Miltenyi Biotech, Bergisch Gladbach, Germany) according to the manufacturer's instructions. Mature monocyte-derived dendritic cells (DCs) were generated as described previously ([Schmitz et al, 2000]).\nAfter washing 2 × 10^5 peptide-loaded DCs were cocultured with 2 × 10^6 immunomagnetically isolated CD8+ T cells well^−1 of a 24-well tissue culture plate (Greiner, Frickenhausen, Germany). […] The T cells were cultured in 2 ml RPMI 1640 medium well^−1 supplemented with 10% human serum (CCpro, Neustadt, Germany), 100 U ml^−1 IL-2 and 10 ng ml^−1 IL-7 (both from Strathmann Biotech, Hanover, Germany). After 7 days, cultures were washed and restimulated with peptide-loaded DCs at a responder to stimulator ratio of 5 : 1. After three rounds of weekly restimulation, the cultures were tested for the presence of prostein-specific CTLs. […]"}, "HLA-A^*0201": {"biological_target": "T1, HLA-A^*0201 (Homo sapiens, UniProt P04439, D140Y/D185E/D98H/E176V/E277Q/G131W/G231S/I119V/I121R/I166T/I218V/L300P/L318F/N151K/N90K/P208A/P217A/Q86G/Q94H/R138H/R169H/T345S)", "T1 construct": "endogenous in cells; host or cells: B-cell lines LCL721 or JY", "assay": "Fluorescence-based competition assay on B-cell lines LCL721 or JY", "conditions": "inhibition of binding of reporter peptide ILK(FITC)EPVHGV relative to positive control peptide YLLPAIVHI set as 100%; all peptides at 10 μM; LCL721 or JY cells, no acid strip; flow cytometry", "method": "Binding studies of potential HLA-A^*0201 fitting peptides were carried out using the B-cell lines LCL721 or JY and a fluorescence-based competition assay, essentially as described by [van der Burg et al (1995)], but without performing acid strip. Reporter peptide was ILK(FITC)EPVHGV from HIV-1 reverse transcriptase and positive control was […] from RNA helicase p72. Fluorescence intensities were recorded by flow cytometry (FACSCALIBUR; Becton Dickinson, Heidelberg, Germany)."}, "K562 cells": {"tested_on": "K562 cells", "assay": "51Cr release assay: peptide-activated CD8+ T cells against K562 cells", "format": "cell-based, human", "conditions": "E:T 3:1, 10:1, 30:1; 4 h 51Cr release", "method": "After washing 2 × 10^5 peptide-loaded DCs were cocultured with 2 × 10^6 immunomagnetically isolated CD8+ T cells well^−1 of a 24-well tissue culture plate (Greiner, Frickenhausen, Germany). […] The T cells were cultured in 2 ml RPMI 1640 medium well^−1 supplemented with 10% human serum (CCpro, Neustadt, Germany), 100 U ml^−1 IL-2 and 10 ng ml^−1 IL-7 (both from Strathmann Biotech, Hanover, Germany). After 7 days, cultures were washed and restimulated with peptide-loaded DCs at a responder to stimulator ratio of 5 : 1. After three rounds of weekly restimulation, the cultures were tested for the presence of prostein-specific CTLs.\nCytotoxic activity of the in vitro-stimulated CTLs was assayed against the HLA-A^*0201-positive mutant cell line T2 pulsed with the individual prostein-derived peptides or an irrelevant HLA-A^*0201-binding peptide from HIV-1 reverse transcriptase at a concentration of 50 μg ml^−1, against the PCa cell line LNCaP 1740, the melanoma cell line 93.04A12.1 and against K562 cells as targets in a 4 h standard ^51Cr release assay as described previously ([Kiessling et al, 2002]). The HLA-A2 restriction of CD8+ T-cell-mediated lysis was tested at an effector cell to target cell ratio of 30 : 1 in the presence of the anti-HLA-A2 monoclonal antibody derived from the MA2.1 hybridoma (American Type Culture Collection) at a final concentration of 1 μg ml^−1."}, "LNCaP 1740 cells": {"tested_on": "LNCaP 1740 cells", "assay": "51Cr release assay: peptide-activated CD8+ T cells against LNCaP 1740 cells", "format": "cell-based, human", "method": "(§1) Briefly, LNCaP 1740 cells were cultured for 24 h in phenol red-free RPMI (Life Technologies) supplemented with 1% nonessential amino acids, 10 mM HEPES (Life Technologies) and 10% charcoal-stripped FCS (Biochrom). The cultivation was continued for additional 48 h in the androgen-depleted medium or in the presence of 1 nM of the synthetic androgen R1881 (Perkin-Elmer Life Sciences, Rodgau-Jügesheim, Germany). Subsequently, the cells were harvested and were used as target cells in a chromium release assay.\nAfter washing 2 × 10^5 peptide-loaded DCs were cocultured with 2 × 10^6 immunomagnetically isolated CD8+ T cells well^−1 of a 24-well tissue culture plate (Greiner, Frickenhausen, Germany). […] After 7 days, cultures were washed and restimulated with peptide-loaded DCs at a responder to stimulator ratio of 5 : 1. After three rounds of weekly restimulation, the cultures were tested for the presence of prostein-specific CTLs.\nThe HLA-A2 restriction of CD8+ T-cell-mediated lysis was tested at an effector cell to target cell ratio of 30 : 1 in the presence of the anti-HLA-A2 monoclonal antibody derived from the MA2.1 hybridoma (American Type Culture Collection) at a final concentration of 1 μg ml^−1."}, "[2]": {"tested_on": "prostein mRNA expression in LNCaP 1740 cells", "assay": "Quantitative RT-PCR of prostein transcripts in LNCaP 1740 cells under androgen deprivation or stimulation", "format": "cell-based, human", "conditions": "1 nM R1881 for 48 h; real-time PCR normalised to HPRT; means of two LC runs", "method": "as §1, with “The androgen deprivation and stimulation experiments were performed as described previously ([Xu et al, 2001]). Briefly,” for “Briefly,”\nThe mRNA quantity of prostein was determined using a LightCycler (LC)-based real-time PCR protocol based on SYBR Green I detection (LC – FastStart DNA Master SYBR Green I; Roche Diagnostics, Mannheim, Germany) and the primer pair Prostein_N1 (5′-[…]-3′) and Prostein_C1 (5′-[…]-3′) to amplify a 240 bp cDNA fragment spanning two exons.\nThe mRNA copy number was adjusted to the RT–PCR product quantity of hypoxanthine phosphoribosyltransferase (HPRT) determined by LC technique using the primer pair HPRT_N1 (5′-[…]-3′) and HPRT_C1 (5′-[…]-3′) for the amplification of a 238 bp fragment. […]"}}, "data": [{"molecule": "CLAAGITYV [compound 2004]", "values": [{"measurement": "Induction of peptide-specific CTLs (specific lysis of peptide-loaded T2 cells)", "setting": "[1]", "result": "induced specific CTLs in all three donors tested"}, {"measurement": "rBA (%) relative binding affinity", "setting": "HLA-A^*0201", "result": 94.0, "unit": "%"}, {"measurement": "Lysis of K562 cells by peptide-activated T cells (natural killer cell-like activity)", "setting": "K562 cells", "result": "failure"}, {"measurement": "Lysis of LNCaP 1740 cells by CTLs specifically recognising the peptide", "setting": "LNCaP 1740 cells; HLA-A*0201-positive, prostein-expressing PCa cell line, E:T 3:1, 10:1, 30:1, 4 h 51Cr release, three donors", "result": "capable of lysing"}]}, {"molecule": "ALLPRLHQL [compound 1487]", "values": [{"measurement": "rBA (%) relative binding affinity", "setting": "HLA-A^*0201", "result": 84.1, "unit": "%"}]}, {"molecule": "C[C@]1(O)CC[C@H]2[C@@H]3CCC4=CC(=O)CCC4=C3C=C[C@@]21C", "note": "[R1881, reference compound]", "values": [{"measurement": "Prostein mRNA expression in LNCaP 1740 under androgen deprivation compared with cells cultured in the presence of R1881", "setting": "[2]", "result": "downregulated but still detectable"}, {"measurement": "T-cell-mediated cytotoxicity against LNCaP 1740 cells deprived of androgen compared with cells grown in the presence of R1881", "setting": "LNCaP 1740 cells; 1 nM R1881 for 48 h after 24 h in charcoal-stripped FCS medium, E:T 30:1, all three donors", "result": "clearly reduced"}]}]}
